Results on 35 compounds are retold here after patent US20240173419A1, “CDK2 DEGRADERS AND USES THEREOF” (Kymera Therapeutics, Inc., priority 2022, published 2024).

Bounds are passed on as bounds.

For the assay, the target named is T1, CDK2 (Homo sapiens, UniProt P24941).
T1 construct: endogenous in cells; host or cells: MKN1 cells
The experiment in a line: CDK2 degradation in MKN1 cells (AlphaLISA). Details: key to CDK2 degradation 14 h: Mean external-Abs DC50 (nM): A (<100 nM); B (≥100-500 nM); C (>500-1000 nM); D (>1000 nM); E (not achieved). It counts as cell-based. The settings on record: 14 h incubation; for DC50: read-out: CDK2 degradation 14 h: Mean external-Abs DC50. In outline: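 MKN1 cells (2e4/well) treated 14 h at 37° C with 11-point 1:5 dilutions (0.001 nM-10 μM, 0.1% DMSO). CDK2 in lysates quantified by AlphaLISA, no-cell background subtracted; DC50 from four-parameter logistic fit.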
A general note: Alpha assays give light when donor and acceptor beads are brought close together.

The DC50 is the concentration giving 50% degradation. In the case of `Cc1cc(S(=O)(=O)NCCCCC2CCN(c3ccc(N4CCC(=O)NC4=O)cc3)CC2)ccc1Nc1ncc2cc(Cl)c(=O)n(C3CCCC3)c2n1` [I-411], the “CDK2 degradation 14 h: Average Dmax %” value was “C (C (>25% -50%))” and the DC50 was above 1000 nM.
On the same counts, the results for `Cc1cc(S(=O)(=O)NCCCC2CCN(c3ccc(N4CCC(=O)NC4=O)cc3)CC2)ccc1Nc1ncc2cc(Cl)c(=O)n(C3CCCC3)c2n1` [I-412] are “C (C (>25% -50%))” and above 1000 nM.
As to `Cc1cc(S(=O)(=O)NCCC2CCN(c3ccc(N4CCC(=O)NC4=O)cc3)CC2)ccc1Nc1ncc2cc(Cl)c(=O)n(C3CCCC3)c2n1` [I-413], the “CDK2 degradation 14 h: Average Dmax %” value is “B (B (>50% -75%))” and the 50% degradation concentration (DC50) is above 1000 nM.
The like results for `Cc1cc(S(=O)(=O)N2CCC(CN(C)C3CCN(c4cccn5c(N6CCC(=O)NC6=O)cnc45)CC3)CC2)ccc1Nc1ncc2cc(Cl)c(=O)n(C3CCCC3)c2n1` [I-414] were, in that order, “B (B (>50% -75%))” and 100 to 500 nM.
As to `Cc1cc(S(=O)(=O)N2CCC(CN(C)C3CCN(c4cccc5c(N6CCC(=O)NC6=O)cncc45)CC3)CC2)ccc1Nc1ncc2cc(Cl)c(=O)n(C3CCCC3)c2n1` [I-416], the “CDK2 degradation 14 h: Average Dmax %” value was “A (A (>75% o))” and the half-maximal degradation concentration (DC50) is below 100 nM.
The like results for `Cc1cc(S(=O)(=O)N2CC3(CC(OCCN4CCC(c5ccc6c(c5)n(C)c(=O)n6C5CCC(=O)NC5=O)CC4)C3)C2)ccc1Nc1ncc2cc(Cl)c(=O)n(C3CCCC3)c2n1` (stereo not shown) [I-418] were, in that order, “C (C (>25% -50%))” and above 1000 nM.
On the same counts, the results for `Cc1cc(S(=O)(=O)N[C@H]2CC[C@H](OCCN3CCC(c4ccc5c(c4)n(C)c(=O)n5C4CCC(=O)NC4=O)CC3)CC2)ccc1Nc1ncc2cc(Cl)c(=O)n(C3CCCC3)c2n1` (stereo partly shown) [I-419] are “A (A (>75% o))” and below 100 nM.
The like results for `Cc1cc(S(=O)(=O)NCCCN(C)C2CCN(c3cccc4c3n(C)c(=O)n4C3CCC(=O)NC3=O)CC2)ccc1Nc1ncc2cc(Cl)c(=O)n(C3CCCC3)c2n1` (stereo not shown) [I-420] were, in that order, “A (A (>75% o))” and below 100 nM.
With `Cc1cc(S(=O)(=O)N2CC(CN(C)C3CCN(c4cccc5c4n(C)c(=O)n5C4CCC(=O)NC4=O)CC3)C2)ccc1Nc1ncc2cc(Cl)c(=O)n(C3CCCC3)c2n1` (stereo not shown) [I-421], the “CDK2 degradation 14 h: Average Dmax %” value is “B (B (>50% -75%))” and the DC50 was in the range of 100 to 500 nM.
Take `Cc1cc(S(=O)(=O)N2CCC(CN(C)C3CN(c4cccc5c4n(C)c(=O)n5C4CCC(=O)NC4=O)C3)CC2)ccc1Nc1ncc2cc(Cl)c(=O)n(C3CCCC3)c2n1` (stereo not shown) [I-422]: the “CDK2 degradation 14 h: Average Dmax %” value is reported as “C (C (>25% -50%))” and the “CDK2 degradation 14 h: Mean external-Abs DC50 (nM)” value is listed as “E”.
In the case of `Cc1cc(S(=O)(=O)N2CCC(CCN3CCN(c4cccc5c4n(C)c(=O)n5C4CCC(=O)NC4=O)CC3)CC2)ccc1Nc1ncc2cc(Cl)c(=O)n(C3CCCC3)c2n1` (stereo not shown) [I-423], the “CDK2 degradation 14 h: Average Dmax %” value was “A (A (>75% o))” and the DC50 is below 100 nM.
In the case of `Cc1cc(S(=O)(=O)NCCO[C@H]2CC[C@H](CN3CCC(c4ccc5c(c4)n(C)c(=O)n5C4CCC(=O)NC4=O)CC3)CC2)ccc1Nc1ncc2cc(C(F)F)c(=O)n(C(C)C)c2n1` (stereo partly shown) [I-428], the “CDK2 degradation 14 h: Average Dmax %” value is reported as “A (A (>75% o))” and the DC50 was below 100 nM.
The like results for `Cc1cc(S(=O)(=O)NCCO[C@H]2C[C@H](CN3CCC(c4ccc5c(c4)n(C)c(=O)n5C4CCC(=O)NC4=O)CC3)C2)ccc1Nc1ncc2cc(Cl)c(=O)n(C3CCCC3)c2n1` (stereo partly shown) [I-429] were, in that order, “A (A (>75% o))” and below 100 nM.
On the same counts, the results for `Cc1cc(S(=O)(=O)NCCO[C@H]2CC[C@H](CN3CC(c4ccc5c(c4)n(C)c(=O)n5C4CCC(=O)NC4=O)C3)CC2)ccc1Nc1ncc2cc(Cl)c(=O)n(C3CCCC3)c2n1` (stereo partly shown) [I-430] are “A (A (>75% o))” and below 100 nM.
The like results for `Cc1cc(S(=O)(=O)NCCCN2CCN(CC3CCN(c4ccc5c(c4)n(C)c(=O)n5C4CCC(=O)NC4=O)CC3)CC2)ccc1Nc1ncc2cc(Cl)c(=O)n(C3CCCC3)c2n1` (stereo not shown) [I-431] were, in that order, “A (A (>75% o))” and below 100 nM.
With `Cc1cc(S(=O)(=O)NCCO[C@H]2CC[C@H](CN3CCN(c4ccc5c(c4)n(C)c(=O)n5C4CCC(=O)NC4=O)CC3)CC2)ccc1Nc1ncc2cc(Cl)c(=O)n(C3CCCC3)c2n1` (stereo partly shown) [I-432], the “CDK2 degradation 14 h: Average Dmax %” value was “A (A (>75% o))” and the DC50 was below 100 nM.
On to `Cc1cc(S(=O)(=O)NCCCN2CCC(OC3CCN(c4ccc5c(c4)n(C)c(=O)n5C4CCC(=O)NC4=O)CC3)CC2)ccc1Nc1ncc2cc(Cl)c(=O)n(C3CCCC3)c2n1` (stereo not shown) [I-433], for which the “CDK2 degradation 14 h: Average Dmax %” value is given as “A (A (>75% o))” and the DC50 was below 100 nM.
`Cc1cc(S(=O)(=O)NCCOC2CCN(CC3CCN(c4ccc5c(c4)n(C)c(=O)n5C4CCC(=O)NC4=O)CC3)CC2)ccc1Nc1ncc2cc(Cl)c(=O)n(C3CCCC3)c2n1` (stereo not shown) [I-434]: the “CDK2 degradation 14 h: Average Dmax %” value is listed as “A (A (>75% o))” and the 50% degradation concentration (DC50) is below 100 nM.
For `Cc1cc(S(=O)(=O)N(C)CCO[C@H]2CC[C@H](CN3CCC(c4ccc5c(c4)n(C)c(=O)n5C4CCC(=O)NC4=O)CC3)CC2)ccc1Nc1ncc2cc(Cl)c(=O)n(C3CCCC3)c2n1` (stereo partly shown) [I-435], the “CDK2 degradation 14 h: Average Dmax %” value is listed as “A (A (>75% o))” and the 50% degradation concentration (DC50) is below 100 nM.
On the same counts, the results for `Cc1cc(S(=O)(=O)N2CCC(CN(C)C3CCN(c4cccc5c4n(C)c(=O)n5C4CCC(=O)NC4=O)CC3)CC2)ccc1Nc1ncc2cc(Cl)c(=O)n(C3CCCC34CC4)c2n1` (stereo not shown) [I-436] are “A (A (>75% o))” and below 100 nM.
Consider `Cc1cc(S(=O)(=O)N2CCC(CN(C)C3CCN(c4cccc5c4n(C)c(=O)n5C4CCC(=O)NC4=O)CC3)CC2)ccc1Nc1ncc2cc(Cl)c(=O)n(C(C)C)c2n1` (stereo not shown) [I-437], for which the “CDK2 degradation 14 h: Average Dmax %” value is given as “A (A (>75% o))” and the DC50 is below 100 nM.
Take `Cc1cc(S(=O)(=O)N2CCC(CN(C)C3CCN(c4cccc5c4n(C)c(=O)n5C4CCC(=O)NC4=O)CC3)CC2)ccc1Nc1ncc2cc(C(F)F)c(=O)n(C3CCCC3)c2n1` (stereo not shown) [I-438]: the “CDK2 degradation 14 h: Average Dmax %” value is “A (A (>75% o))” and the DC50 is below 100 nM.
On the same counts, the results for `Cc1cc(S(=O)(=O)NCCO[C@H]2CC[C@H](CN3CCC(c4ccc5c(c4)n(C)c(=O)n5C4CCC(=O)NC4=O)CC3)CC2)ccc1Nc1ncc2cc(Cl)c(=O)n(C3CCCC34CC4)c2n1` (stereo partly shown) [I-439] are “A (A (>75% o))” and below 100 nM.
The like results for `Cc1cc(S(=O)(=O)NCCO[C@H]2CC[C@H](CN3CCC(c4ccc5c(c4)n(C)c(=O)n5C4CCC(=O)NC4=O)CC3)CC2)ccc1Nc1ncc2cc(Cl)c(=O)n(C(C)C)c2n1` (stereo partly shown) [I-440] were, in that order, “A (A (>75% o))” and below 100 nM.
On the same counts, the results for `Cc1cc(S(=O)(=O)NCCO[C@H]2CC[C@H](CN3CCC(c4ccc5c(c4)n(C)c(=O)n5C4CCC(=O)NC4=O)CC3)CC2)ccc1Nc1ncc2cc(C(F)F)c(=O)n(C3CCCC3)c2n1` (stereo partly shown) [I-441] are “A (A (>75% o))” and below 100 nM.
As to `Cc1cc(S(=O)(=O)N2CCC(CN(C)C3CCN(c4cccc5c4n(C)c(=O)n5C4CCC(=O)NC4=O)CC3)CC2)ccc1Nc1ncc2cc(Cl)c(=O)n(C3CCCC3)c2n1` (stereo not shown) [I-442], the “CDK2 degradation 14 h: Average Dmax %” value is “A (A (>75% o))” and the 50% degradation concentration (DC50) is below 100 nM.
On to `Cc1cc(S(=O)(=O)NCCOC2CC3(C2)CN(Cc2ccc4c(c2)n(C)c(=O)n4C2CCC(=O)NC2=O)C3)ccc1Nc1ncc2ccc(=O)n(C3CCCC3)c2n1` (stereo not shown) [I-445], for which the “CDK2 degradation 14 h: Average Dmax %” value is on record as “A (A (>75% o))” and the DC50 is below 100 nM.
Regarding `Cc1cc(S(=O)(=O)N2CCC(OCC#Cc3cccc4c3n(C)c(=O)n4C3CCC(=O)NC3=O)CC2)ccc1Nc1ncc2ccc(=O)n(C3CCCC3)c2n1` (stereo not shown) [I-447], the “CDK2 degradation 14 h: Average Dmax %” value is “D (D (<25%))” and the 50% degradation concentration (DC50) is above 1000 nM.
On the same counts, the results for `Cc1cc(S(=O)(=O)N2CCC(CN(C)C3CCN(Cc4cccc5c4n(C)c(=O)n5C4CCC(=O)NC4=O)CC3)CC2)ccc1Nc1ncc2ccc(=O)n(C3CCCC3)c2n1` (stereo not shown) [I-449] are “A (A (>75% o))” and below 100 nM.
The like results for `Cc1cc(S(=O)(=O)N2CCC(CN(C)C3CCN(c4cccc5c4n(C)c(=O)n5C4CCC(=O)NC4=O)CC3)CC2)ccc1Nc1ncc2ccc(=O)n(C3CCCC3)c2n1` (stereo not shown) [I-450] were, in that order, “A (A (>75% o))” and below 100 nM.
Consider `Cc1cc(S(=O)(=O)N2CCC(CN3CCN(c4cccc5c4n(C)c(=O)n5C4CCC(=O)NC4=O)CC3)CC2)ccc1Nc1ncc2ccc(=O)n(C3CCCC3)c2n1` (stereo not shown) [I-451], for which the “CDK2 degradation 14 h: Average Dmax %” value is listed as “C (C (>25% -50%))” and the “CDK2 degradation 14 h: Mean external-Abs DC50 (nM)” value was “E”.
For the compound `Cc1cc(S(=O)(=O)N2CCC(CN3CCN(Cc4cccc5c4n(C)c(=O)n5C4CCC(=O)NC4=O)CC3)CC2)ccc1Nc1ncc2ccc(=O)n(C3CCCC3)c2n1` (stereo not shown) [I-452], the “CDK2 degradation 14 h: Average Dmax %” value is given as “B (B (>50% -75%))” and the DC50 was below 100 nM.
In the case of `Cc1cc(S(=O)(=O)N2CCC(OCCCc3ccc4c(c3)n(C)c(=O)n4C3CCC(=O)NC3=O)CC2)ccc1Nc1ncc2ccc(=O)n(C3CCCC3)c2n1` (stereo not shown) [I-453], the “CDK2 degradation 14 h: Average Dmax %” value was “D (D (<25%))” and the half-maximal degradation concentration (DC50) was above 1000 nM.
The like results for `Cc1cc(S(=O)(=O)N2CCC(OCCCc3cccc4c3n(C)c(=O)n4C3CCC(=O)NC3=O)CC2)ccc1Nc1ncc2ccc(=O)n(C3CCCC3)c2n1` (stereo not shown) [I-454] were, in that order, “C (C (>25% -50%))” and above 1000 nM.
The like results for `Cc1cc(S(=O)(=O)N2CCC(OCC#Cc3cccc4c3n(C)c(=O)n4C3CCC(=O)NC3=O)CC2)ccc1Nc1ncc2cc(Cl)c(=O)n(C3CCCC3)c2n1` (stereo not shown) [I-455] were, in that order, “D (D (<25%))” and above 1000 nM.
